In patent publication US9834807B2, “Compositions for the detection of intracellular bacterial targets and other intracellular micororganism targets” (Becton, Dickinson and Company, priority 2008, dated 2017):

Tests used:
[1] = tested on: intracellular beta-lactamase; assay: nitrocefin hydrolysis by bacterial cell suspension on Phoenix panel; assay type: cell-based, Klebsiella pneumoniae; set-up: unit not given here; settings: maximum hydrolysis rate within 10 hrs; for NCF activity: no lysis reagent
Method: (§1) Panel production. Stock solutions with nitrocefin, trehalose, and/or reagents used to lyse the bacterial cells in pH6 MES buffer were prepared and dispensed into wells on the bottom part of a Phoenix™ panel (BD, USA), with one stock solution in one well. Panels were then dried in an oven for approximately 30 min at approximately 70° C. The top part of Phoenix panel was then attached to the bottom part forming a panel system ready for inoculation. The concentrations of reagents after rehydration following Phoenix panel inoculation were 3 mg/ml lysozyme, 1 mM EDTA, and 1% trehalose in 0.1M pH6 MES buffer.
(§2) Inoculation and lysis testing. Representative strains of bacteria, such as E. coli and Klebsiella pneumoniae, were each streaked on a Trypticase™ Soy Agar with 5% Sheep Blood agar plate (BD, USA) and the plates were incubated at 35° C. for 18 hours. Afterwards, colonies from pure culture on each plate were inoculated into BD Phoenix ID broth and adjusted to a desired turbidity of approximately 0.5 MacFarland. The bacterial cell suspension was then poured into the ID side of the Phoenix panels that were specifically made for cell lysis testing. Once inoculated, the panel was loaded into Phoenix instrument, where nitrocefin hydrolysis rate was monitored by colorimetric signals changes every 20 minutes for 16 hours.
(§3) Microorganism. The presence of beta-lactamase in the strains tested herein was previously characterized by isoelectric focusing (IEF) gel electrophoresis, PCR testing, or MIC assays, which were performed by microbroth dilution method according to the CLSI (Clinical and Laboratory Standards Institute) standard.

[2] = tested on: intracellular beta-lactamase; assay: as above; assay type: cell-based, E. coli; set-up: unit not given here; settings: maximum hydrolysis rate within 10 hrs; for NCF activity: no lysis reagent
Method: as §1, §2, §3

[3] = Sample 9, Klebsiella pneumoniae, beta-lactamase +
[4] = Sample 10, Klebsiella pneumoniae, beta-lactamase +
[5] = Sample 11, Klebsiella pneumoniae, beta-lactamase +
[6] = Sample 12, Klebsiella pneumoniae, beta-lactamase +
[7] = Sample 13, Klebsiella pneumoniae, beta-lactamase +
[8] = Sample 14, Klebsiella pneumoniae, beta-lactamase +
[9] = Sample 15, Klebsiella pneumoniae, beta-lactamase +
[10] = Sample 16, Klebsiella pneumoniae, beta-lactamase −
[11] = Sample 1, E. coli, beta-lactamase +
[12] = Sample 2, E. coli, beta-lactamase +
[13] = Sample 3, E. coli, beta-lactamase +
[14] = Sample 4, E. coli, beta-lactamase +
[15] = Sample 5, E. coli, beta-lactamase +
[16] = Sample 6, E. coli, beta-lactamase +
[17] = Sample 7, E. coli, beta-lactamase +
[18] = Sample 8, E. coli, beta-lactamase −

For `O=C(Cc1cccs1)N[C@@H]1C(=O)N2C(C(=O)O)=C(/C=C/c3ccc([N+](=O)[O-])cc3[N+](=O)[O-])CS[C@H]12` [NCF, 3-[2,4-dinitrostyryl]-7-(2-thienylacetamido]3-cephem-4-carboxylic acid], the NCF activity [1, 3] was 1.3, the “NCF activity with lysis reagent” value [1, 3] was 4.6 and the NCF activity [1, 4] was 3.3. For the same compound, the “NCF activity with lysis reagent” value [1, 4] was 6.3, the NCF activity [1, 5] was 3.9 and the “NCF activity with lysis reagent” value [1, 5] was 6.1. The NCF activity [1, 6] was 2.6, the “NCF activity with lysis reagent” value [1, 6] was 5.6 and the NCF activity [1, 7] was 6.7. For the same compound, the “NCF activity with lysis reagent” value [1, 7] was 6.8, the NCF activity [1, 8] was 7.5 and the “NCF activity with lysis reagent” value [1, 8] was 8.8. For the same compound, the NCF activity [1, 9] was 9.1, the “NCF activity with lysis reagent” value [1, 9] was 9.5 and the NCF activity [1, 10] was 1.2. The “NCF activity with lysis reagent” value [1, 10] was 1.8, the NCF activity [2, 11] was 1.9 and the “NCF activity with lysis reagent” value [2, 11] was 7.2. The NCF activity [2, 12] was 2.1, the “NCF activity with lysis reagent” value [2, 12] was 7.7 and the NCF activity [2, 13] was 2.3. The “NCF activity with lysis reagent” value [2, 13] was 8.1, the NCF activity [2, 14] was 1.9 and the “NCF activity with lysis reagent” value [2, 14] was 6.8. For the same compound, the NCF activity [2, 15] was 8.2, the “NCF activity with lysis reagent” value [2, 15] was 9.1 and the NCF activity [2, 16] was 7.2. For the same compound, the “NCF activity with lysis reagent” value [2, 16] was 8.1, the NCF activity [2, 17] was 6.8 and the “NCF activity with lysis reagent” value [2, 17] was 8.4. For the same compound, the NCF activity [2, 18] was 1.7 and the “NCF activity with lysis reagent” value [2, 18] was 1.8.
